The values below come from patent US20250129096A1, “ANNULATED 2-AMINO-3-CYANO THIOPHENES AND DERIVATIVES FOR THE TREATMENT OF CANCER” (Boehringer Ingelheim Int'l GmbH Corp., priority 2021, published 2025).

Where only a bound is given, the exact number is not on record here.

In series [1] the target is T1, KRAS (G12D)::SOS1 (Homo sapiens, UniProt P01116, G12D).
T1 construct: KRAS (G12D) 1-169, N-terminal 6His-tag, C-terminal avi-tag; 6His-tag (N); purchased Xtal BioStructures, Inc. (KRAS G12D); Viva Biotech Ltd (SOS1)
T1 sequence (P01116 1-169 isoform P01116-2 G12D): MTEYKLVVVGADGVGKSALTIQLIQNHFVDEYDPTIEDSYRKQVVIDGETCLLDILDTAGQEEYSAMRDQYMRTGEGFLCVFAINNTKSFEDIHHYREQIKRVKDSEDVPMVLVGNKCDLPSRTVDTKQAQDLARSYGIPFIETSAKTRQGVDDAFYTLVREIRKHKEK
The series is described as follows: KRAS::SOS1 AlphaScreen binding assay, KRAS G12D. Here is the method:
Low IC50 values in this assay setting are indicative of strong inhibition of protein-protein interaction between SOS1 and KRAS:
These assays measure the inhibitory effect of compounds on KRAS mutant protein-protein interactions using the Alpha Screen technology by Perkin Elmer.
For the chosen highest assay concentration of 100 μM, 150 nL of compound solution are transferred from a 10 mM DMSO compound stock solution. A series of eleven fivefold dilutions per compound are transferred to the assay plate, compound dilutions are tested in duplicates. DMSO are added as backfill to a total volume of 150 nL.
The assays run on a fully automated robotic system in a darkened room below 100 Lux. To 150 nl of compound dilution 10 μl of a mix including KRAS mutant protein, SOS1 (final assay concentrations see above) and GDP nucleotide (Sigma G7127; final assay concentration 10 μM) in assay buffer (1×PBS, 0.1% BSA, 0.05% Tween 20) are added into columns 1-24. After 30 minutes incubation time 5 μl of Alpha Screen bead mix in assay buffer are added into columns 1-23.
Plates are kept at room temperature in a darkened incubator. After an additional 60 minutes incubation time the signal is measured in a PerkinElmer Envision HTS Multilabel Reader using the AlphaScreen specs from PerkinElmer.
IC50 values are calculated and analyzed with Boehringer Ingelheim's MEGALAB IC50 application using a 4 parametric logistic model.

The subject of series [2] is LOVO cells (CRC, G13D). The series is described as follows: LOVO CTG proliferation assay (120 h). The series is classed as cell-based. The note with it: Homo sapiens, CellTiter-Glo. The protocol: LOVO cells (ATCC CCL-229) are dispensed into 384-well plates, flat and clear bottom (Greiner, PNr. 781091) at a density of 1000 cells per well in 60 μL DMEM (Sigma D6429)+10% Fetal Calf Serum (HyClone, PNr.: SH30084.03) and incubated at 37° C. in a CO2 incubator overnight. The next day, compounds (10 mM stock in DMSO) are added with the ECHO acoustic liquid handler system (Beckman Coulter), including DMSO controls. Plates are incubated for 120 h, and cell viability is measured using CellTiter-Glo luminescent cell viability reagent (Promega product code G7570). Viability (stated as percent of control) is defined as relative luminescence units RLU of each well divided by the RLU of cells in DMSO controls. IC50 values are determined from viability measurements by non-linear regression using a four-parameter model.
(In ATP-based viability assays light output follows the ATP content of the culture.)

The nature of series [3]: Metabolic (microsomal) stability assay, HLM. The format is in vitro ADME. Conditions: human liver microsomes, 1 μM test compound, predicted clearance as percent of liver blood flow. The protocol:
The metabolic degradation of the test compound is assayed at 37° C. with pooled liver microsomes (mouse (MLM), rat (RLM) or human (HLM)). The final incubation volume of 48 μL per time point contains TRIS buffer (pH 7.5; 0.1 M), magnesium chloride (6.5 mM), microsomal protein (0.5 mg/mL for mouse/rat, 1 mg/mL for human specimens) and the test compound at a final concentration of 1 μM. Following a short preincubation period at 37° C., the reactions are initiated by addition of 12 μL beta-nicotinamide adenine dinucleotide phosphate, reduced form (NADPH, 10 mM) and terminated by transferring an aliquot into solvent after different time points (0, 5, 15, 30, 60 min). Additionally, the NADPH-independent degradation is monitored in incubations without NADPH, terminated at the last time point by addition of acetonitrile. The quenched incubations are pelleted by centrifugation (4,000 rpm, 15 min). An aliquot of the supernatant is assayed by LC-MS/MS to quantify the concentration of parent compound in the individual samples.
In vitro intrinsic clearance (CLint, in vitro) is calculated from the time course of the disappearance of the test drug during the microsomal incubation. Each plot is fitted to the first-order elimination rate constant as C(t)=C0*exp(−ke*t), where C(t) and C0 are the concentration of unchanged test drug at incubation time t and that at preincubation and ke is the disappearance rate constant of the unchanged drug. Subsequently, CLint, in vitro (μL min^−1·amount protein) values are converted to predicted CLint, in vivo (mL min^−1 kg^−1) from incubation parameters according to the equation CLint, in vivo=CLint, in vitro×(incubation volume (ml)/amount protein (mg))×(amount protein (mg)/g liver tissue)×(liver weight/body wt.). For better across species comparison the predicted clearance is expressed as percent of the liver blood flow [% QH] (mL min^−1 kg^−1) in the individual species. In general, high stability (corresponding to low % QH) of the compounds across species is desired.

Series [4] has as its system AsPC-1 cells (pancreatic cancer, G12D). The series is described as follows: AsPC-1 CTG proliferation assay (120 h). The format is cell-based. The note with it: Homo sapiens, ASPC1, CellTiter-Glo. Here is the method:
The CTG assay is designed to measure quantitatively the proliferation of AsPC-1 cells (ATCC […]), using the CellTiter Glow Assay Kit (Promega G7571). Cells are grown in RPMI medium (ATCC) supplemented with Fetal Calf Serum (Life Technologies, Gibco BRL, Cat. No. 10270-106). On “day 0” 2000 AsPC-1 cells are seeded in 60 μL RPMI ATCC+10% FCS+ Penstrep in a 384-well plate, flat and clear bottom (Greiner, PNr. 781091). Cells are then incubated in the plates at 37° C. in a CO2 incubator overnight. On day 1, compounds (10 mM stock in DMSO) are added with the ECHO acoustic liquid handler system (Beckman Coulter), including DMSO controls. Plates are incubated for 120 h, and cell viability is measured using CellTiter-Glo luminescent cell viability reagent (Promega product code G7570). Viability (stated as percent of control) is defined as relative luminescence units RLU of each well divided by the RLU of cells in DMSO controls. IC50 values are determined from viability measurements by non-linear regression using a four-parameter model.

The IC50 is the midpoint of a concentration-inhibition curve. Low readings indicate inhibition by little substance, high ones a need for much substance. In the case of `C[C@H]1CNCCCN1c1nccc(-c2noc3c2CCC[C@@]32CCCc3sc(N)c(C#N)c32)n1` (single isomer, unassigned) [IIb-5], the figures for the IC50 in series [1], in series [2] and in series [4] were 3 nM, 2870 nM and 3.62 µM, respectively. Moreover, the “HLM QH” value in series [3] was less than 24%.

In the case of `CC1Cc2c(-c3ccnc(N4CCCNC[C@@H]4C)n3)noc2C2(CCCc3sc(N)c(C#N)c32)C1` (some centres unmarked) [IIb-1], the figures for the concentration for half-maximal inhibition (IC50) in series [1], in series [2] and in series [4] were 31 nM, 2420 nM and 3.57 µM, respectively. Also, in series [3], the “HLM QH” value was less than 24%.

For the molecule `C[C@H]1CNCCCN1c1nccc(-c2noc3c2CC(F)(F)CC32CCCc3sc(N)c(C#N)c32)n1` (some centres unmarked) [IIb-2], the IC50 in series [1] is 21 nM; in series [2] it was 3250 nM; in series [4], 5.11 µM. The “HLM QH” value in series [3] was 39%.

Regarding `C[C@H](Oc1ccnc(-c2noc3c2CCC[C@@]32CCCc3sc(N)c(C#N)c32)n1)[C@@H]1CCCN1C` [IIb-3], the IC50 in series [1] came out at 2 nM; in series [4], 0.65 µM. Moreover, the “HLM QH” value in series [3] is listed as 64%.

On to `C[C@H]1CNCCCN1c1nccc(-c2noc3c2CSCC32CCCc3sc(N)c(C#N)c32)n1` (some centres unmarked) [IIb-4], for which the IC50 in series [1] was determined as 13 nM; in series [2], 1660 nM; in series [4] it was 4.13 µM.

As to `C[C@H]1CNCCCN1c1nccc(-c2noc3c2OCCC32CCCc3sc(N)c(C#N)c32)n1` (some centres unmarked) [IIb-7], the IC50 was 2 nM in series [1], 479 nM in series [2] and 2.8 µM in series [4]. Also, the “HLM QH” value in series [3] is less than 24%.

`C[C@H](Oc1nccc(-c2noc3c2CCC[C@@]32CCCc3sc(N)c(C#N)c32)n1)[C@@]1(C)CCCN1C` [IIe-1]: the values for the IC50 in series [1], in series [2] and in series [4] were 4 nM, 3810 nM and 5.52 µM, respectively. Further, the “HLM QH” value in series [3] was more than 88%.

Consider `C[C@H]1CNCCN1c1nccc(-c2noc3c2CCC[C@@]32CCCc3sc(N)c(C#N)c32)n1` [IIf-1], for which the figures for the IC50 in series [2] and in series [4] were 479 nM and 1.51 µM, respectively. Besides, in series [3], the “HLM QH” value is reported as 29%.

Turning to `C[C@@H]1NCCCN(c2nccc(-c3onc4c3CCC[C@@]43CCCc4sc(N)c(C#N)c43)n2)[C@H]1C` [Ib-2], the IC50 in series [1] amounted to 5 nM; in series [2], 1100 nM; in series [4], 5.97 µM. Besides, the “HLM QH” value in series [3] is on record as 51%.

On to `C[C@H]1CNCCCN1c1ncnc(-c2onc3c2CCC[C@@]32CCCc3sc(N)c(C#N)c32)n1` [Ib-4], for which the IC50 in series [1] is 4 nM; in series [2], 7250 nM; in series [4], more than 25 µM. Also, the “HLM QH” value in series [3] is listed as 34%.

Consider `C[C@H]1[C@@H]2CCCN2CCCN1c1nccc(-c2onc3c2CCC[C@@]32CCCc3sc(N)c(C#N)c32)n1` [Id-1], for which the IC50 in series [1] worked out at 1 nM; in series [2], 10000 nM; in series [4], 3.57 µM. In addition, in series [3], the “HLM QH” value was more than 88%.

In the case of `CO[C@@H]1C[C@@H]([C@H](C)Oc2nccc(-c3onc4c3CCC[C@@]43CCCc4sc(N)c(C#N)c43)n2)N(C)C1` [Ie-1], the figures for the half-maximal inhibitory concentration (IC50) in series [1], in series [2] and in series [4] were 2 nM, 333 nM and 5.48 µM, respectively. Besides, the “HLM QH” value in series [3] was more than 88%.

With `C[C@H](Oc1nccc(-c2onc3c2CCC[C@@]32CCCc3sc(N)c(C#N)c32)n1)[C@@H]1C[C@@H](F)CN1C` [Ie-2], the IC50 was 2 nM in series [1], 567 nM in series [2] and 2.56 µM in series [4]. For the same molecule, the “HLM QH” value in series [3] is on record as more than 88%.

On to `CCN1[C@H]2C[C@H]2C[C@H]1[C@H](C)Oc1nccc(-c2onc3c2CCC[C@@]32CCCc3sc(N)c(C#N)c32)n1` [Ie-3], for which the half-inhibitory concentration (IC50) in series [1] came to 3 nM; in series [2] it was 539 nM; in series [4], 8.03 µM. In addition, in series [3], the “HLM QH” value is recorded as more than 88%.

Turning to `CC(Oc1nccc(-c2onc3c2CCC[C@@]32CCCc3sc(N)c(C#N)c32)n1)C12CCCN1CCC2` (some centres unmarked) [Ie-5], the IC50 in series [1] turned out to be 4 nM; in series [2] it was 178 nM; in series [4], 5.86 µM. Also, the “HLM QH” value in series [3] was 63%.

Turning to `C[C@H]1CNCCCN1c1nccc(-c2onc3c2CCC[C@@]32CCCc3sc(N)c(C#N)c32)n1` [If-1], the half-inhibitory concentration (IC50) came to 5 nM in series [1], 3060 nM in series [2] and 6.68 µM in series [4]. Further, the “HLM QH” value in series [3] is given as 25%.

Take `C[C@H](Oc1nccc(-c2onc3c2CCC[C@@]32CCCc3sc(N)c(C#N)c32)n1)[C@@H]1C[C@@H]2C[C@@H]2N1` [If-2]: the IC50 in series [1] is 6 nM; in series [2], 10900 nM; in series [4], more than 25 µM.

In the case of `C[C@H](Oc1nccc(-c2onc3c2CCC[C@@]32CCCc3sc(N)c(C#N)c32)n1)[C@@H]1C[C@@H]2C[C@@H]2N1C` [Ih-1], the figures for the IC50 in series [1], in series [2] and in series [4] were 4 nM, 618 nM and 4.21 µM, respectively. Besides, in series [3], the “HLM QH” value was more than 88%.
